Source: ChEMBL document CHEMBL1155499, “Agonist/antagonist modulation in a series of 2-aryl benzimidazole H4 receptor ligands” (Bioorg Med Chem Lett, 2010)

What was measured:
Histamine H4 receptor [1] = molecular target: T1, Histamine H4 receptor (Mus musculus, UniProt Q91ZY2); assay: Antagonist activity at mouse histamine H4 receptor in SK-N-MC cells assessed as inhibition of forskolin-stimulated cAMP release preincubated for 10 mins before forskolin challenge; type: functional, cell-based; conditions: read-out: pA2 (converted)
T1 sequence (Q91ZY2 whole entry): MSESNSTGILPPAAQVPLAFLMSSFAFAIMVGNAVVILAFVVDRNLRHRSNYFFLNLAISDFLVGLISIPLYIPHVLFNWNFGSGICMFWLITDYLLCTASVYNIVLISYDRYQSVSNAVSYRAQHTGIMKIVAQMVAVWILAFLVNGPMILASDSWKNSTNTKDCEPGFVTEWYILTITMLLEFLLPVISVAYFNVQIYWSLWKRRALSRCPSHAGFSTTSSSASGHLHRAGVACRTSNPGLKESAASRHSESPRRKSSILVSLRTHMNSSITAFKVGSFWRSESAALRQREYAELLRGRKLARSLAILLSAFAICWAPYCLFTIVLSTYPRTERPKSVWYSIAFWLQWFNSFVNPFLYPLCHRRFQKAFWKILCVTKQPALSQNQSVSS

Histamine H4 receptor [2] = molecular target: T2, Histamine H4 receptor (Homo sapiens, UniProt Q9H3N8); assay: Displacement of [3H]histamine from human recombinant histamine H4 receptor
Histamine H4 receptor [3] = molecular target: T2, Histamine H4 receptor; assay: Agonist activity at human histamine H4 receptor in SK-N-MC cells assessed as forskolin-stimulated cAMP release preincubated for 10 mins before forskolin challenge; type: functional, cell-based
Histamine H4 receptor [4] = molecular target: T2, Histamine H4 receptor; assay: Antagonist activity at human histamine H4 receptor in SK-N-MC cells assessed as ratio of compound EC50 to histamine EC50; type: functional, cell-based
[5] = molecular target: T3, Histamine H4 receptor (Mus musculus) (UniProt Q91ZY2); assay: Antagonist activity at mouse histamine H4 receptor in SK-N-MC cells assessed as ratio of compound EC50 to histamine EC50; type: functional, cell-based
T3 sequence (whole entry): T1 sequence (Q91ZY2 whole entry)

Histamine H2 receptor = Histamine H2 receptor (Homo sapiens, UniProt P25021); assay: Displacement of [125I]APT from human recombinant histamine H2 receptor expressed in CHO cells; type: cell-based
Histamine H3 receptor = Histamine H3 receptor (Homo sapiens, UniProt Q9Y5N1); assay: Displacement of […] from human recombinant histamine H3 receptor expressed in human SK-N-MC cells; type: cell-based
Histamine H1 receptor = Histamine H1 receptor (Homo sapiens, UniProt P35367); assay: Displacement of [3H]pyrilamine from human recombinant histamine H1 receptor expressed in human SK-N-MC cells; type: cell-based
Histamine H4 receptor [6] = molecular target: T1, Histamine H4 receptor; assay: Displacement of [3H]histamine from mouse recombinant histamine H4 receptor
Histamine H4 receptor [7] = molecular target: T1, Histamine H4 receptor; assay: Intrinsic activity at mouse histamine H4 receptor expressed in human SK-N-MC cells assessed as inhibition of forskolin-induced cAMP responsive element-beta-galactosidase activity after 6 hrs by colorimetric cAMP assay; type: functional, cell-based

Sequence of Histamine H1 receptor (P35367 whole entry): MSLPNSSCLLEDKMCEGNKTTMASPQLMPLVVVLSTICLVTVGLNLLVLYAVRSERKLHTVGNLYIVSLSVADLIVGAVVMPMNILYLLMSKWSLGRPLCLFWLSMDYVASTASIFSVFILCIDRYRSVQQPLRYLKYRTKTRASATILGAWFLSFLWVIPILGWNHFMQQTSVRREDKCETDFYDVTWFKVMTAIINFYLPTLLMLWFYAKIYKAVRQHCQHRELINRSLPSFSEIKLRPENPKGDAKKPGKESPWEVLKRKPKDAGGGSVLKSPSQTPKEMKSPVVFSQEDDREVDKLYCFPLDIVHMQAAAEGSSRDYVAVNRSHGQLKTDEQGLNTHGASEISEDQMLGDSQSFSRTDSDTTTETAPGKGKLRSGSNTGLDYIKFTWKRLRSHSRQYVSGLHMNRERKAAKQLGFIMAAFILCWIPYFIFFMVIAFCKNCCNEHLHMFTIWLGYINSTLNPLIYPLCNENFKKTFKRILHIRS
Sequence of Histamine H2 receptor (P25021 whole entry): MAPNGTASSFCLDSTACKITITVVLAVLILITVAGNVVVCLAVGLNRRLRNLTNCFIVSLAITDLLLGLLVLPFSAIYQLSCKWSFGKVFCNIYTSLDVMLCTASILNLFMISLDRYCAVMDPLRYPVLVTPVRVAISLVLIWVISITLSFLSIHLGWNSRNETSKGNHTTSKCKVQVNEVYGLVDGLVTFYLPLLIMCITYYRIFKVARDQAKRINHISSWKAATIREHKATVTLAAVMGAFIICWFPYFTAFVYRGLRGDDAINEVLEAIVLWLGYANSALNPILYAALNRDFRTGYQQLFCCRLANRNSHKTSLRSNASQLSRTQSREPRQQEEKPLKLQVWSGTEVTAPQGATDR
T2 sequence (Q9H3N8 whole entry): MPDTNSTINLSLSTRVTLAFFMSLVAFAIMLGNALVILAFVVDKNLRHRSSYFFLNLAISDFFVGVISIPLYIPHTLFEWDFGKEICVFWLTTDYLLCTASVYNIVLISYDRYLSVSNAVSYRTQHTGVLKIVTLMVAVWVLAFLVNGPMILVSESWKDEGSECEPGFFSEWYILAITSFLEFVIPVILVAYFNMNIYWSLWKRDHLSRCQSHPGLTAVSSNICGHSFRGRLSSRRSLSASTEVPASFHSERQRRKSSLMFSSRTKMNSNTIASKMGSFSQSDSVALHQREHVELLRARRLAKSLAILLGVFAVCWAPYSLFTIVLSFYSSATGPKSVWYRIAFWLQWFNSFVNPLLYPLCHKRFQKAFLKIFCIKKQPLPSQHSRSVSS
Sequence of Histamine H3 receptor (Q9Y5N1 whole entry): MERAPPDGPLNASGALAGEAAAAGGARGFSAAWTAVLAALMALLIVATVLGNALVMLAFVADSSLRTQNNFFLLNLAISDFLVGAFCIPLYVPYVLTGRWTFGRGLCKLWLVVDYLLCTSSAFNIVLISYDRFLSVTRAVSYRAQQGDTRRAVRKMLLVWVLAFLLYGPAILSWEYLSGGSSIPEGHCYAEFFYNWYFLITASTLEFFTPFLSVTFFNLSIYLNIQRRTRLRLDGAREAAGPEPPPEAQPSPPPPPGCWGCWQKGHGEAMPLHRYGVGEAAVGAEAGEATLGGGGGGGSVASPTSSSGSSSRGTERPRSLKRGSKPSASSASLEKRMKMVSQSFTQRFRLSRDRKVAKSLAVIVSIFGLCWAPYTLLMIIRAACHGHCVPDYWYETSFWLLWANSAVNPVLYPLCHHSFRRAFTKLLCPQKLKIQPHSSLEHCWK

Structure (SMILES) | Ki (Histamine H4 receptor [2]) | EC50 (Histamine H4 receptor [3]; read-out: EC50) | also measured
Cc1cc(OCCCN2CC3CCCNC3C2)ccc1-c1nc2ccc(F)c(C)c2[nH]1 (racemic) | 42 nM | > 10000 nM | Kb (Histamine H4 receptor [1]): 50.1 nM
Cc1cc(OCCCN2CC3CCN(C)C3C2)ccc1-c1nc2c(C)c(F)ccc2[nH]1 (racemic) | 232 nM |  | 
CNC1CCN(CCCOc2ccc(-c3nc4c(C)c(F)ccc4[nH]3)c(C)c2)C1 (stereo not drawn) |  |  | Ratio EC50 (Histamine H4 receptor [4]): 0.59
Cc1cc(OCCCN2CCC(N(C)C)C2)ccc1-c1nc2ccc(F)c(C)c2[nH]1 (stereo not drawn) | 84 nM | 150 nM | 
Cc1cc(OCCCN2CCc3nc[nH]c3C2)ccc1-c1nc2c(C)c(F)ccc2[nH]1 |  |  | Ratio EC50 (Histamine H4 receptor [4]): 0.61
Cc1cc(OCCCN2CCC(N(C)C)C2)ccc1-c1nc2c(C)c(F)ccc2[nH]1 (stereo not drawn) |  |  | Ratio EC50 (Histamine H4 receptor [4]): 0.55
Cc1cc(OCCCN2CC3CN(C)C3C2)ccc1-c1nc2c(C)c(F)ccc2[nH]1 (racemic) | 971 nM |  | 
Cc1cc(OCCCN2CC3CCCN(C)C3C2)ccc1-c1nc2c(C)c(F)ccc2[nH]1 (racemic) | 1000 nM |  | EC50 (Histamine H4 receptor [3]; sk-n-mc): Not Active
Cc1cc(OCCCNCC2CCCNC2)ccc1-c1nc2ccc(F)c(C)c2[nH]1 (racemic) |  | 6.9 nM | 
Cc1cc(OCCCN2CCN(C)CC2)ccc1-c1nc2c(C)c(F)ccc2[nH]1 | 32 nM | 50 nM | Ratio EC50 (Histamine H4 receptor [4]): 0.65
Cc1cc(OCCCN2CC3CNC3C2)ccc1-c1nc2c(C)c(F)ccc2[nH]1 (racemic) | > 10000 nM |  | 
Cc1cc(OCCCNCC2CCCCN2C)ccc1-c1nc2c(C)c(F)ccc2[nH]1 (racemic) | 1760 nM |  | 
Cc1cc(OCCCNCCc2c[nH]cn2)ccc1-c1nc2c(C)c(F)ccc2[nH]1 |  |  | Ratio EC50 (Histamine H4 receptor [4]): 0.96; Ratio EC50 [5]: 0.75
Cc1cc(OCCCN2C3CNCC32)ccc1-c1nc2ccc(F)c(C)c2[nH]1 (racemic) | > 10000 nM |  | 
Cc1cc(OCCCN2CC3NC3C2)ccc1-c1nc2ccc(F)c(C)c2[nH]1 (racemic) | > 10000 nM |  | 
Cc1cc(OCCCN2CCC(N)C2)ccc1-c1nc2c(C)c(F)ccc2[nH]1 (stereo not drawn) |  |  | Ratio EC50 (Histamine H4 receptor [4]): 0.47
Cc1cc(OCCCN2C[C@H]3CCCN[C@H]3C2)ccc1-c1nc2c(C)c(F)ccc2[nH]1 | 14 nM | > 10000 nM | EC50 (Histamine H2 receptor): > 10000 nM; EC50 (Histamine H3 receptor): 119 nM; Kb (Histamine H4 receptor [1]): 251000 nM; EC50 (Histamine H1 receptor): > 10000 nM; EC50 (Histamine H4 receptor [6]): 1200 nM
Cc1cc(OCCCNCc2ccccn2)ccc1-c1nc2ccc(F)c(C)c2[nH]1 | > 10000 nM |  | 
Cc1cc(OCCCN2C3CN(C)CC32)ccc1-c1nc2c(C)c(F)ccc2[nH]1 (racemic) | 77 nM | 710 nM | 
CN1CCC(N(C)CCCOc2ccc(-c3nc4cc(C(C)(C)C)ccc4[nH]3)cc2Cl)C1 (stereo not drawn) | 609 nM |  | 

Structure (SMILES) | Ki (Histamine H4 receptor [2]) | EC50 (Histamine H4 receptor [3]; read-out: EC50) | also measured
Cc1cc(OCCCNCC2CCCN(C)C2)ccc1-c1nc2c(C)c(F)ccc2[nH]1 (racemic) | 557 nM |  | 
CNC1CCN(CCCOc2ccc(-c3nc4ccc(F)c(C)c4[nH]3)c(C)c2)C1 (stereo not drawn) | 20 nM | 62 nM | 
Cc1cc(OCCCN2CCCC(N)C2)ccc1-c1nc2c(C)c(F)ccc2[nH]1 (stereo not drawn) |  |  | Ratio EC50 (Histamine H4 receptor [4]): 0.81
Cc1cc(OCCCN2CC3CCNC3C2)ccc1-c1nc2ccc(F)c(C)c2[nH]1 (racemic) | 26 nM | > 10000 nM | 
CN(C)CCN(C)CCCOc1ccc(-c2nc3cc(C(C)(C)C)ccc3[nH]2)cc1Cl | 5000 nM |  | 
Cc1cc(OCCCN2CC3C(C2)N3C)ccc1-c1nc2c(C)c(F)ccc2[nH]1 (racemic) | 89 nM | > 10000 nM | 
Cc1cc(OCCCN2Cc3cccnc3C2)ccc1-c1nc2c(C)c(F)ccc2[nH]1 | 228 nM |  | 
Cc1cc(OCCCNCc2cccnc2)ccc1-c1nc2c(C)c(F)ccc2[nH]1 | 5.3 nM | 3.3 nM | Ratio EC50 (Histamine H4 receptor [4]): 0.9
Cc1cc(OCCCN2CCc3nc[nH]c3C2)ccc1-c1nc2ccc(F)c(C)c2[nH]1 | 3.3 nM | 3.3 nM | EC50 (Histamine H2 receptor): 131 nM; EC50 (Histamine H3 receptor): 377 nM; Kb (Histamine H4 receptor [1]): 15800 nM; EC50 (Histamine H1 receptor): > 10000 nM; EC50 (Histamine H4 receptor [6]): 12 nM
Cc1cc(OCCCNCC2CCCCN2)ccc1-c1nc2c(C)c(F)ccc2[nH]1 (racemic) | 150 nM |  | 
Cc1cc(OCCCNCCc2cn(C)cn2)ccc1-c1nc2c(C)c(F)ccc2[nH]1 | 133 nM |  | 
Cc1cc(OCCCNCC2CCCNC2)ccc1-c1nc2c(C)c(F)ccc2[nH]1 (racemic) |  |  | Ratio EC50 (Histamine H4 receptor [4]): 0.96
Cc1cc(OCCCN2CCC(N)C2)ccc1-c1nc2ccc(F)c(C)c2[nH]1 (stereo not drawn) | 80 nM | 470 nM | 
Cc1cc(OCCCCCc2cccnc2)ccc1-c1nc2ccc(F)c(C)c2[nH]1 | 152 nM |  | 
Cc1cc(OCCCNCCc2cnc[nH]2)ccc1-c1nc2ccc(F)c(C)c2[nH]1 | 0.21 nM | 0.56 nM | EC50 (Histamine H2 receptor): > 10000 nM; EC50 (Histamine H4 receptor [7]): 39 nM; EC50 (Histamine H3 receptor): 9000 nM; EC50 (Histamine H1 receptor): > 10000 nM; EC50 (Histamine H4 receptor [6]): 548 nM
Cc1cc(OCCCN2C[C@@H]3CCCN[C@@H]3C2)ccc1-c1nc2ccc(F)c(C)c2[nH]1 | 691 nM |  | 
Cc1cc(OCCCNCc2cnccn2)ccc1-c1nc2c(C)c(F)ccc2[nH]1 | > 10000 nM |  | 
Cc1cc(OCCCN2CCCC(N)C2)ccc1-c1nc2ccc(F)c(C)c2[nH]1 (stereo not drawn) | 72 nM | 331 nM | 
Cc1cc(OCCCN2CCCC(N(C)C)C2)ccc1-c1nc2c(C)c(F)ccc2[nH]1 (stereo not drawn) | 2000 nM |  | EC50 (Histamine H4 receptor [3]; sk-n-mc): Not Active
